The text below walks through data of patent US20190255019A1, “NOVEL DOSAGE REGIMEN” (Biogen MA Inc., priority 2016, published 2019).

Read-outs that look alike come from different tables or passages of the source.

For data set [1] the following is noted: cited from earlier work.
In a further data set the target is Human Nav1.7 (Homo sapiens, UniProt Q15858). In words: In vitro assay quantifying block of hNav1.7 at mid point inactivation, read at free plasma Cmax. Type of data set: biochemical. As to conditions: at free plasma Cmax of 200 mg bid. The source says:
In Table 1, free plasma CMax exposures of Example 1 obtained from modelling different dosing regimens were used to quantify the resulting amount of block at the primary target hNaV1.7. […] Doses of marketed drugs used in trigeminal neuralgia were compared using the same paradigm.

In another data set the test system is trigeminal neuralgia. Conditions: 200 mg bid, TN; cited from earlier work.

Sequence of Human Nav1.7 (Q15858 whole entry): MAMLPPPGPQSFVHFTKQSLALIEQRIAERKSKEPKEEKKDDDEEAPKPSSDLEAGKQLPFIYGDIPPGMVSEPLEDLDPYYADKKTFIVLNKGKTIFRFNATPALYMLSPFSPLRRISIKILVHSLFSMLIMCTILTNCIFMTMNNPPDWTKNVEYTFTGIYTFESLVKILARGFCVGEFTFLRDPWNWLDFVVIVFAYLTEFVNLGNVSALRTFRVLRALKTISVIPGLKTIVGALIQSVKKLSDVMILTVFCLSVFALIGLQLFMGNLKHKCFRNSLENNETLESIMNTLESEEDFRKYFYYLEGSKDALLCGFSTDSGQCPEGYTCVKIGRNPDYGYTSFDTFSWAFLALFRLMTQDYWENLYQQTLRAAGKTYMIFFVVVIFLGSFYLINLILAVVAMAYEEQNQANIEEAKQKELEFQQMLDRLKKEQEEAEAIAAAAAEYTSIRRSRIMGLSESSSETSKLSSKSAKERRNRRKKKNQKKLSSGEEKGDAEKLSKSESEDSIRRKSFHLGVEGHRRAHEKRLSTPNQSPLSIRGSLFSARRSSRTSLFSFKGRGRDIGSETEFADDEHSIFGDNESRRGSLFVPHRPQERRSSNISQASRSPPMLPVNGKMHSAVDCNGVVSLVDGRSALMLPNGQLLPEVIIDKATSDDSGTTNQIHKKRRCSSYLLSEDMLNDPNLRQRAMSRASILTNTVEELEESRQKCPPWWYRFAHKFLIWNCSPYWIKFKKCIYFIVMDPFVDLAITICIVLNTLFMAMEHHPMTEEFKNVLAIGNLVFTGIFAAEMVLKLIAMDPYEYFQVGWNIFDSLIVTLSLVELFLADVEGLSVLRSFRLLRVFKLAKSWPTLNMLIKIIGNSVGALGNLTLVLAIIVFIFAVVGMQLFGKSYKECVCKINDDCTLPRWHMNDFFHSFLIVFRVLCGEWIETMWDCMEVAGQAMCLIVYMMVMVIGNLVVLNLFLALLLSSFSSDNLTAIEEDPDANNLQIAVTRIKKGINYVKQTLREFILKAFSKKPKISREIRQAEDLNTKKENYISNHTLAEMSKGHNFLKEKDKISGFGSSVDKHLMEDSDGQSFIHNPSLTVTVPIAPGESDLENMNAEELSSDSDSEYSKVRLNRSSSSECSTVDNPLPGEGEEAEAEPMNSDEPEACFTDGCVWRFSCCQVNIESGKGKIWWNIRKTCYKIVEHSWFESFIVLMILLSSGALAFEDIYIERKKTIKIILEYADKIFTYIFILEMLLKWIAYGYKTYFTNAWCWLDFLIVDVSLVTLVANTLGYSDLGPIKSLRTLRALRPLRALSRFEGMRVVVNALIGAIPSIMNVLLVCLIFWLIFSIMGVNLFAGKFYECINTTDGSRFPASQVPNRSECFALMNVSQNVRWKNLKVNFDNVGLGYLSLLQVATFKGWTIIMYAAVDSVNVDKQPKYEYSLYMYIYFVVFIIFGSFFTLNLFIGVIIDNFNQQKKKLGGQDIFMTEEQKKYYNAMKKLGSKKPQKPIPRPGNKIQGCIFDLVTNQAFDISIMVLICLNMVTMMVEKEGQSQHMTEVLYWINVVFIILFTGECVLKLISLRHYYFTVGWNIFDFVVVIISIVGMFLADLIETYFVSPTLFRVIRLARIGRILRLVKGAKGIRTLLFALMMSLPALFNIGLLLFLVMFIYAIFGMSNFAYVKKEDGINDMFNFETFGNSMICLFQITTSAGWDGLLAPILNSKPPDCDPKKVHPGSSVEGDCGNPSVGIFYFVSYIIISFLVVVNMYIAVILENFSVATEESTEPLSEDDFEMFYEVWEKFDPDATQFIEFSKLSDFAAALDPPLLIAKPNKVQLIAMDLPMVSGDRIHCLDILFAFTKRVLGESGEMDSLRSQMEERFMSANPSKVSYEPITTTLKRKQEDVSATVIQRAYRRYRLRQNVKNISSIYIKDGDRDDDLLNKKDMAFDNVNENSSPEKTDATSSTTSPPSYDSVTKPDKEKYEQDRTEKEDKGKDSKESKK

For `NC(=O)N1c2ccccc2C=Cc2ccccc21` [Carbamazepine], in data set [1] (Carbamazepine 200 mg qid), the “Cmax Free plasma” value is 4 to 12 µM and the Free fraction was 24%.
Consider `Nc1nnc(-c2cccc(Cl)c2Cl)c(N)n1` [Lamotrigine], for which, in data set [1] (Lamotrigine 200 mg bid), the “Cmax Free plasma” value was 5.8 µM and the Free fraction is given as 44%. Moreover, on Human Nav1.7, the “Human Nav1.7 % Inhibition” value was determined as 6%. Besides, the Clinical efficacy result in the data set with trigeminal neuralgia is on record as “NO EFFICACY”.
